The values that follow come from publication PMC5518309 (ChemMedChem, 2014).

Data set [1] can be described thus: Metabolic stability in porcine liver homogenates. In kind it is in vitro ADME. The note with it: pig, porcine liver homogenate (supernatant).
Data set [2] can be described thus: Stability test in human blood plasma. The note with it: human. Type of data set: in vitro ADME.
In a further data set the target is T1, hY2R (Homo sapiens, UniProt P49146).
T1 sequence (P49146 1-381): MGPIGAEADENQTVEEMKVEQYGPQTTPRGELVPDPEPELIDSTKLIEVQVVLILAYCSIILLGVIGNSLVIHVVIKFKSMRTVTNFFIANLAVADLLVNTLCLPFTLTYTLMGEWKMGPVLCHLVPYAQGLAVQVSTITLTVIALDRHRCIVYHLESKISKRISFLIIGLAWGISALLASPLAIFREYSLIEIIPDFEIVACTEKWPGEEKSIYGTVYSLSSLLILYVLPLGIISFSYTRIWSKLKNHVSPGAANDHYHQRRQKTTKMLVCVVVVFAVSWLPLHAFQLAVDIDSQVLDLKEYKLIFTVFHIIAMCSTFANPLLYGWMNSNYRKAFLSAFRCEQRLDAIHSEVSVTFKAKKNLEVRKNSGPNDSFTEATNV
Nature of the data set: Inositol phosphate accumulation assay, hY2R. Type of data set: cell-based. The note with it: for Emax: read-out: hY2R Emax.

For the next data set, the target named is T2, hY5R (Homo sapiens, UniProt Q15761).
T2 sequence (Q15761 1-445): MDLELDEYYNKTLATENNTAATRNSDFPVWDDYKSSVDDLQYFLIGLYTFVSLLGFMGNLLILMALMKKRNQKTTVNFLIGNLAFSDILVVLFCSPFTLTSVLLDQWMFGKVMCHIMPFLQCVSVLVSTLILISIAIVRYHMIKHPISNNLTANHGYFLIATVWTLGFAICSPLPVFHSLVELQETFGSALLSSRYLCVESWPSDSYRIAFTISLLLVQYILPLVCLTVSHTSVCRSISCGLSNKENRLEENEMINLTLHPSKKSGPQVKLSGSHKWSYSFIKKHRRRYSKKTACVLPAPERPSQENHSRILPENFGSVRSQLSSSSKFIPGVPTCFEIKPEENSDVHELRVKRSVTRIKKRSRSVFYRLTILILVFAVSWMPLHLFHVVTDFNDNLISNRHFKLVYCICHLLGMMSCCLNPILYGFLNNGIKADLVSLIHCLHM
Nature of the data set: Inositol phosphate accumulation assay, hY5R. Type of data set: cell-based. The note with it: for Emax: read-out: hY5R Emax.

The next data set has as its target hY4R (Homo sapiens, UniProt P50391). In words: Inositol phosphate accumulation assay, hY4R. Type of data set: cell-based. The note with it: for Emax: read-out: hY4R Emax.
The next data set deals with T3, hY1R (Homo sapiens, UniProt P25929).
T3 sequence (P25929 1-384): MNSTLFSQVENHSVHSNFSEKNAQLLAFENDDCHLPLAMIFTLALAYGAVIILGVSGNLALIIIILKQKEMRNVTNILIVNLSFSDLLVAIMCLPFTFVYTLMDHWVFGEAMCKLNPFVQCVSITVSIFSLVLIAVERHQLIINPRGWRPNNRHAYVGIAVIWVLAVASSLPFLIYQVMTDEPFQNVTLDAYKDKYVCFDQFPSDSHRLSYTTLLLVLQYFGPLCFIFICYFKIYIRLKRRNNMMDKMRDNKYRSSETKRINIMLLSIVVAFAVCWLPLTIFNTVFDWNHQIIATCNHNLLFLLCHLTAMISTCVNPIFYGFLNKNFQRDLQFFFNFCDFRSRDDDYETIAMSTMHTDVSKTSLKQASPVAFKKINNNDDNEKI
Nature of the data set: Inositol phosphate accumulation assay, hY1R. The note with it: for Emax: read-out: hY1R Emax. In kind it is cell-based.

Numbered stars: 1 amine (or outer) side, 2 acyl side, 3 side chain; on linkers, the order of the positions; unused ones are H or OH. Side chains are listed from the residue outwards. Ends that are not written are not given here. Peptide text beside a SMILES is read from it. * marks the point of attachment. X1 = CN(C)c1ccc2c(c1)Oc1cc(N(C)C)ccc1C21OC(=O)c2ccc(C(=O)*)cc21; Arachidoyl = CCCCCCCCCCCCCCCCCCCC(=O)*; γGlu = O=C(O)[C@H](CCC(=O)[*:2])N[*:1]

hY4R, sequence (P50391 whole entry): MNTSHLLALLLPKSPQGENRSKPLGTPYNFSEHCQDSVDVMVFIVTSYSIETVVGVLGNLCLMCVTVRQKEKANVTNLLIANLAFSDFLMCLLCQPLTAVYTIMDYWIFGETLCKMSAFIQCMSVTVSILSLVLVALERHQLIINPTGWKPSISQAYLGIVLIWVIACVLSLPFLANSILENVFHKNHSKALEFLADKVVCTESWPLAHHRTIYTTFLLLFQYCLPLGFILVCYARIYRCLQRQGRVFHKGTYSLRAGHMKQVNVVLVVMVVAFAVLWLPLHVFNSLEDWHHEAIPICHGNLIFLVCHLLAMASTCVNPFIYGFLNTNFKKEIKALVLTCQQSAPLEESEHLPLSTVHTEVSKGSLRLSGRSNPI

By half-life is commonly meant the time needed for the level to fall by half in the phase considered. Read a high half-life as slow loss. As for `CC[C@H](C)[C@H](NC(=O)[C@H](Cc1ccc(O)cc1)NC(=O)[C@H](CCCNC(=N)N)NC(=O)[C@H](CCCNC(=N)N)NC(=O)[C@H](CC(C)C)NC(=O)[C@H](CC(=O)O)NC(=O)[C@H](C)NC(=O)[C@H](C)NC(=O)[C@H](Cc1ccc(O)cc1)NC(=O)[C@H](CCC(N)=O)NC(=O)[C@H](C)NC(=O)[C@H](CCSC)NC(=O)[C@H](CCC(N)=O)NC(=O)[C@H](CCC(=O)O)NC(=O)[C@@H]1CCCN1C(=O)[C@@H](NC(=O)[C@H](C)NC(=O)[C@H](CC(N)=O)NC(=O)[C@H](CC(=O)O)NC(=O)CNC(=O)[C@@H]1CCCN1C(=O)[C@H](Cc1ccc(O)cc1)NC(=O)[C@@H](NC(=O)[C@@H]1CCCN1C(=O)[C@H](CCC(=O)O)NC(=O)[C@H](CC(C)C)NC(=O)[C@@H]1CCCN1C(=O)c1ccc2c(c1)C1(OC2=O)c2ccc(N(C)C)cc2Oc2cc(N(C)C)ccc21)C(C)C)[C@@H](C)O)C(=O)N[C@@H](CC(N)=O)C(=O)N[C@@H](CCCCN)C(=O)N[C@@H](CC(C)C)C(=O)N[C@H](C(=O)N[C@@H](CCCNC(=N)N)C(=O)N1CCC[C@H]1C(=O)N[C@@H](CCCNC(=N)N)C(=O)N[C@@H](Cc1ccc(O)cc1)C(N)=O)[C@@H](C)O` [14b, TAMRA-[K^30]hPP2–36] (X1-PLEPVYPGDNATPEQMAQYAADLRRYINKLTRPRY-NH2), the results for the half-life at 10 μM in data set [1] and in data set [2] were 11 ± 0.4 h and approximately 100 h, respectively.
The term EC50 denotes the concentration needed to bring the measured effect to its halfway point. High values mean lower potency in that assay, low ones higher potency in that assay. In general, Emax refers to the size of the effect at its maximum, as opposed to the concentration needed. In the case of `CCCCCCCCCCCCCCCCCCCC(=O)N[C@@H](CCC(=O)NCCCC[C@H](NC(=O)[C@H](CC(N)=O)NC(=O)[C@@H](NC(=O)[C@H](Cc1ccc(O)cc1)NC(=O)[C@H](CCCNC(=N)N)NC(=O)[C@H](CCCNC(=N)N)NC(=O)[C@H](CC(C)C)NC(=O)[C@H](CC(=O)O)NC(=O)[C@H](C)NC(=O)[C@H](C)NC(=O)[C@H](Cc1ccc(O)cc1)NC(=O)[C@H](CCC(N)=O)NC(=O)[C@H](C)NC(=O)[C@H](CCSC)NC(=O)[C@H](CCC(N)=O)NC(=O)[C@H](CCC(=O)O)NC(=O)[C@@H]1CCCN1C(=O)[C@@H](NC(=O)[C@H](C)NC(=O)[C@H](CC(N)=O)NC(=O)[C@H](CC(=O)O)NC(=O)CNC(=O)[C@@H]1CCCN1C(=O)[C@H](Cc1ccc(O)cc1)NC(=O)[C@@H](NC(=O)[C@@H]1CCCN1C(=O)[C@H](CCC(=O)O)NC(=O)[C@H](CC(C)C)NC(=O)[C@@H]1CCCN1)C(C)C)[C@@H](C)O)[C@@H](C)CC)C(=O)N[C@@H](CC(C)C)C(=O)N[C@H](C(=O)N[C@@H](CCCNC(=N)N)C(=O)N1CCC[C@H]1C(=O)N[C@@H](CCCNC(=N)N)C(=O)N[C@@H](Cc1ccc(O)cc1)C(N)=O)[C@@H](C)O)C(=O)O` [compound 19, [K^30(E-Ara)]hPP2–36] (H-PLEPVYPGDNATPEQMAQYAADLRRYINK([γGlu-Arachidoyl])LTRPRY-NH2), the concentration for a half-maximal effect (EC50) was 4.9 nM on hY2R, 0.6 nM at hY5R, 2.5 nM on hY4R and 25.1 nM on hY1R. Besides, the maximum response (Emax) at hY2R is 88 ± 5%; at hY5R, 69 ± 10%; at hY4R, 84 ± 7%; on hY1R, 98 ± 4%.
As to “PLEPVYPGDNATPEQMAQYAKDLRRYINMLTRPRY-NH2 [compound 8, [K^22]hPP2–36]”, the EC50 at hY2R is 67.1 nM; on hY5R it was 6.1 nM; on hY4R, 1.9 nM; at hY1R it was 51.4 nM. Besides, the Emax amounted to 107 ± 4% on hY2R, 89 ± 5% at hY5R, 91 ± 3% at hY4R and 101 ± 7% at hY1R.
